Literature values, collected in patent US20100209356A1, “CONTRAST AGENTS” (priority 2007, published 2010).

Settings: high risk patients; iodixanol compared with a low-osmolar, non-ionic contrast medium

- nephropathy induced by contrast medium: less likely to develop
SMILES: CC(=O)N(CC(O)CN(C(C)=O)c1c(I)c(C(=O)NCC(O)CO)c(I)c(C(=O)NCC(O)CO)c1I)c1c(I)c(C(=O)NCC(O)CO)c(I)c(C(=O)NCC(O)CO)c1I (stereo not shown) [iodixanol]
